Source: PubChem BioAssay AID179 (DTP/NCI, 2004)
pEC50, pIC50: −log10 of the molar value. Where “and” joins values, the source holds several entries; their conditions need not be identical. Identical values can stand only once. Calls of active or inactive are those of the source.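 Rule for the calls: active = compounds giving half or more protection of infected cells from virus-caused growth loss, again on retest; inactive = the rest.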 Where a SMILES comes first, the peptide text is derived from it. The star is where a group is joined. Cbz = O=C(OCc1ccccc1)*; Boc = CC(C)(C)OC(=O)*; OSu = O=C1CCC(=O)N1O*

Tested on: CEM cells HIV-1 protection, formazan growth assay
Assay: NCI AIDS Antiviral Assay
Settings: for pIC50: measured here: growth of uninfected CEM cells
How it was run: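 Soluble formazan readout of cell growth; CEM cells ± HIV-1; 5 drug concs. ≥50% protection → retest; ≥50% again = moderately active; reproducible 100% = confirmed active.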

SMILES	pEC50	pIC50	outcome
COCn1c(C)c(C)c2c(=O)oc(C)nc21	< 3.70	< 3.70	–
CC1N=C(SCC(=O)c2ccc(Cl)cc2)N2C(C)N=C(SCC(=O)c3ccc(Cl)cc3)N12 (stereo unspecified)	< 4.71	< 4.71	–
Brc1ccc2c(c1)C1=C(CO2)Cc2ccccc2O1	–	–	inactive
CC1(C)CC(=O)c2c([nH]c(=S)c(C#N)c2-c2ccc(Br)cc2)C1	< 3.70	4.36	–
Nc1n[n+]([O-])c2ccc(Cl)cc2[n+]1[O-]	< 3.70	5.45	–
CC(C)CC(C(N)=O)C(=O)NC(Cc1ccccc1)NC(=O)CNC(=O)OC(C)(C)C (stereo unspecified)	< 4.60	< 4.60	–
CC(=O)N/C(=C\C=C\CC=O)SC12CC3CC(CC(C3)C1)C2	< 3.70	4.90	–
C=C(C)[C@@H]1CC[C@]2(C)CC[C@]3(C)[C@H](CC[C@@H]4[C@@]5(C)CC[C@H](O)C(C)(C)[C@@H]5CC[C@]43C)[C@@H]12	< 4.00	4.29	–
NC(=O)N1N=C2c3ccccc3CC[C@@H]2C1c1ccccc1 (stereo partly specified)	–	–	inactive
CC(C)OC(=O)Nc1c([N+](=O)[O-])cc(C(F)(F)F)cc1[N+](=O)[O-]	–	–	inactive
COC(=O)C(C)(C)C(OP(=S)(OC)OC)=C(C)C	< 3.70	< 3.70	–
COCO[C@@H]1C[C@H]2C(=O)Nc3ccccc3C(=O)N2C1	< 3.70	4.42	–
CC1C(=O)C(C)C(c2ccco2)N(N=O)C1c1ccco1 (stereo unspecified)	< 3.63	3.88	–
CCCCCCCCC(=O)N(C)C1C2CN3CCC(O2)C13 (stereo unspecified)	–	–	inactive
Cc1c(N=Nc2ccc(Br)cc2)c(=O)n(-c2ccccc2)c(=O)n1-c1nc2ccccc2[nH]1	< 4.05	4.07	–
CCOC(=O)CC(=O)Nc1cccc2sc3ncccc3c(=O)c12	< 3.70	4.52	–
Cn1cnc([N+](=O)[O-])c1Sc1nnnn1-c1ccccc1	< 3.65	4.97	–
Cc1[nH]c(C)c2ccc(=O)ccc12	< 3.62	3.84	–
O=C(Cn1cc(Br)c(=O)[nH]c1=O)c1ccc(-c2ccccc2)cc1	< 3.70	< 3.70	–
Cc1ccc2c(c1)nc(N)n[n+]2[O-]	< 4.00	< 4.00	–
O=c1n(-c2ccccc2)c(=O)n2n1C1CC3c4ccccc4C1C32 (stereo unspecified)	< 4.64	< 4.64	–
COC1/C=C/OC2(C)Oc3c(C)c(O)c4c(O)c(c(/C=N/N5CCOCC5)c(O)c4c3C2=O)NC(=O)C(C)=C/C=C\C(C)C(O)C(C)C(O)C(C)C(O)C1C (stereo unspecified)	< 3.90	4.14	–

SMILES	pEC50	pIC50	outcome
CNC(=O)CNC(=O)C(NC(=O)CNC(=O)C1CCCN1C(=O)C(C)NC(=O)C(NC(=O)OC(C)(C)C)C(C)C)C(C)C (stereo unspecified) (Boc-VAPGVG-NHMe; configuration not given here)	< 3.70	< 3.70	–
O=[N+]([O-])C=C(c1ccc(Cl)cc1)c1ccc(Cl)cc1	–	–	inactive
O=C(O)CCCc1ccc([As](=O)(O)O)cc1[N+](=O)[O-]	< 3.70	< 3.70	–
CC#COP(=O)(OCC)OCC	< 3.60	< 3.60	–
NC(=O)CCNC(=O)c1ccc(NC(=O)c2ccccc2SC(=O)CCCC[n+]2ccccc2)cc1	4.73	4.34	–
S=c1cc(-c2ccc3c(c2)OCO3)s[nH]1	< 3.70	3.79	–
O=C1OCCCCCCOC(=O)c2ccccc2SSc2ccccc21	< 3.70	< 3.70	–
CCCCCCCCCCCCCCCCOC(=O)c1cc(O)cc(C(=O)OCCCCCCCCCCCCCCCC)c1	–	–	inactive
c1ccc(-c2nc3sccn3n2)cc1	–	–	inactive
COC(=O)C1=C(C)N[C@@]2(C)[C@H](C(=O)OC)C[C@H]1C2(C(C)=O)C(C)=O	< 3.70	< 3.70	–
CCC(CC)C(=O)NCC(=O)NO	< 3.70	< 3.70	–
O=C(O)c1ccccc1/C=N/NC1=CS(=O)(=O)C=C1	–	–	inactive
CNC(=O)N(CCC#N)[C@H]1CCCC[C@@H]1N(C(=O)NC)c1ccccc1	< 3.70	< 3.70	–
COCN1CCC2N(COC)CCC3N(COC)CCC1N23 (stereo unspecified)	–	–	inactive
Cc1cccc[c]1[Sb](=[O])([OH])[OH]	–	–	active
O=C(O)CCSC(=S)Nc1ccc([N+](=O)[O-])cc1	–	–	inactive
C1CSCCSCSCCS1	< 4.35	< 4.35	–
O=C(C/C=C/c1ccccc1)c1ccccc1	< 3.70	5.00	–
CN1C(=O)c2cnc3ccccc3c2C1(O)c1ccccc1 (stereo unspecified)	< 3.70	< 3.70	–
O=C(O)CSc1n[nH]c(=S)c2nc[nH]c12	< 3.27	< 3.27	–
CC(O[Si](c1ccccc1)(c1ccccc1)C(C)(C)C)[C@H](NC(=O)OC(C)(C)C)C(=O)O (stereo partly specified)	< 4.39	< 4.39	–
COc1cc2c(c(OC)c1OC)C(c1ccc3c(c1)OCO3)C1COC(=O)C1C2 (stereo unspecified)	< 4.04	< 4.04	–

SMILES	pEC50	pIC50	outcome
O=C1CCC[C@H]2O[C@@H](COC(=O)c3ccccc3)C[C@H]2O1	< 3.70	< 3.70	–
O=C(Nc1ccc(/C=C/c2ccc(NC(=O)c3cc(S(=O)(=O)O)c4cccnc4c3O)cc2S(=O)(=O)O)c(S(=O)(=O)O)c1)Nc1ccc(/C=C/c2ccc(NC(=O)c3cc(S(=O)(=O)O)c4cccnc4c3O)cc2S(=O)(=O)O)c(S(=O)(=O)O)c1	5.26	4.30	–
COC(=O)NC(=O)c1cn(C2OC(CO)C(O)C2O)c(=O)[nH]c1=O (stereo unspecified)	< 3.14	< 3.14	–
Cc1ccc(S(=O)(=O)N(CC(=O)O)c2c[nH]c(C(=O)O)c2)cc1	< 3.70	< 3.70	–
Clc1cc(Cl)c2c(Cl)cc(Cl)c3c2c1N=S=N3	–	–	inactive
CCOC(=O)Cc1cc(=O)oc2cc(O)ccc12	< 3.70	3.78	–
Nc1nc(Cl)cc(NCCCCCNc2cc(Cl)nc(N)n2)n1	–	–	inactive
O=C1NC(=S)N(c2ccccc2)C1=O	< 3.70	< 3.70	–
COc1cccc(N=NN2CCCC2)c1	< 3.70	4.04	–
CN1C(=O)CSC1=S	< 2.77	5.32 and 4.44	–
O=C(O)c1ccccc1-c1c2cc(Br)c(=O)c(Br)c-2oc2c(Br)c(O)c(Br)cc12	< 3.70	4.66 and 4.45	–
Oc1ccc(SCc2cc(O)c(O)c(O)c2)cc1	< 3.70	5.16	–
Cc1nc2nnc(C)n2c2c1C(=O)Nc1ccccc1N2	< 3.70	< 3.70	–
C=C1CCC(CC[C@@H]2CC[C@]3(OC2)O[C@@]2(O)CC[C@]3(C)OC2(C)C)C(C)(C)[C@H]1C/C=C1/C(=O)OC[C@@H]1O (stereo partly specified)	–	–	inactive
C[C@@H](NC(=O)c1ccccc1SC(=O)OCCCCCl)C(N)=O	5.62	3.71	–
S=C(SSSSC(=S)N(C1CCCCC1)C1CCCCC1)N(C1CCCCC1)C1CCCCC1	< 3.70	3.90	–
CN1C(=O)C2CCCC(=O)N2c2cccnc21 (stereo unspecified)	< 3.70	< 3.70	–
CC(C)(C)C(C)(C)SSC(C)(C)C(C)(C)C	< 3.70	< 3.70	–
CCOC(=O)C1=NC(c2ccccc2)(c2ccccc2)OC1=C(Cl)Cl	< 6.00	< 6.00	–
N#CCc1nc(-c2ccccc2)n[nH]1	< 3.70	< 3.70	–
C=CCOc1cccc(C2(O)c3ccccc3C3=NCCCN32)c1 (stereo unspecified)	< 3.70	4.43	–
CN1NC(C2NN(C)C(=O)N(C)N2)NN(C)C1=O	< 3.01	4.48	–

SMILES	pEC50	pIC50	outcome
NC(=S)N1N=C2CCCCCC[C@@H]2[C@H]1c1ccccc1	–	–	inactive
NCCNCCCNC(=O)c1cc(-c2ccccc2)nc2ccccc12	< 3.70	4.27	–
Brc1cc2[nH]c(-c3ccccc3)c(Br)c2c(Br)c1Br	< 3.70	5.29	–
CN(C)/C=N/NC(=O)/C(C#N)=C/N(C)C	< 3.70	< 3.70	–
Cc1ccc(Oc2nc(Cl)nc(Oc3ccc(C)cc3)n2)cc1	< 3.70	< 3.70	–
Cc1cc2c(C(C)C)c(O)c(O)c(C=NCc3ccoc3)c2c(O)c1-c1c(C)cc2c(C(C)C)c(O)c(O)c(C=NCc3ccco3)c2c1O	< 3.70	5.00	–
CC(=O)Nc1ccc(/C=C2\C=Cc3ccccc32)cc1	< 4.70	4.88	–
Cc1ccc(NC(=O)CC/C(CC(=O)C(C)(C)C)=N/NC(=O)C[N+](C)(C)C)cc1C	< 3.68	< 3.68	–
O=[N+]([O-])c1cccc(S(=O)(=O)OCn2ncc3ccc([N+](=O)[O-])cc32)c1	< 3.70	3.82	–
CC(/C=C/C(=O)c1sc(-n2nc(-c3ccccc3)cc2-c2ccccc2)nc1C)=C\c1ccccc1	< 4.56	< 4.56	–
CN(C)N1C(=C(C#N)C#N)C(c2ccccc2)CC1C#N (stereo unspecified)	< 3.70	< 3.70	–
CCOC(=O)/C=C(/C=C\COC1CCCCO1)c1ccccc1 (stereo unspecified)	< 4.13	4.44	–
O=C1CSC(c2ccccc2)C1C(=O)c1ccc(NCc2nc3ccccc3[nH]2)cc1 (stereo unspecified)	< 3.70	5.06	–
C[C@@H](CO)C1=C(O)c2ccc3c(c2C(=O)C1=O)CCCC3(C)C	< 3.70	4.82	–
Oc1c(O)c(Cc2ccccc2)c(Cc2ccccc2)c(Cc2ccccc2)c1Cc1ccccc1	< 3.70	4.49	–
O=c1[nH]c(=O)n(COCCO)c2ccsc12	< 3.70	< 3.70	–
O=c1ccc(=O)n(CO)[nH]1	< 2.75	4.01	–
Cc1cccc2[nH]c3c(c(O)cc4[nH]c5cccc(C)c5c(=O)c43)c(=O)c12	< 3.70	4.68	–
CC(NC(=O)C(NC(=O)OCc1ccccc1)C(C)C)C(=O)NCC(=O)ON1C(=O)CCC1=O (stereo not drawn) (Cbz-Val-Ala-Gly-OSu; configuration not given here)	< 4.00	< 4.00	–
Clc1ccc(Nc2nnc(CNc3ccc(-c4nnc(Nc5ccc(Cl)cc5)o4)cc3)o2)cc1	< 3.70	5.91	–
CC(C)(C)OC(=O)C1CC[C@@H](CC(=O)Oc2ccc([N+](=O)[O-])cc2)N1 (stereo partly specified)	< 3.70	< 3.70	–
O=C1/C(=C/c2cccc(O)c2)SC(=S)N1/C=C\c1nc2ccccc2[nH]c1=O	< 3.70	4.09	–
